The subject of this test is HL-60(TB). As to the kind of experiment: NCI screen, leukemia. The test is classed as cell-based. The note with it: Homo sapiens, read-out: Log10 GI50, HL-60(TB) (converted).

Here are results for 1 molecule from patent US6136992A, “2-alkoxy estradiols and derivatives thereof” (The United States of America as represented by the …, priority 1998, dated 2000).

SMILES strings stand for the structures.

In the case of `C[C@]12CC[C@@H]3c4cc(OCC(F)(F)F)c(O)cc4C(=NO)C[C@H]3[C@@H]1CC[C@@H]2O` [Compound 12, 2-(2',2', 2'-Trifluoroethoxy)-6-Hydroximino-Estra-1,3,5(10)-Triene-3,17β-Diol], the GI50 is less than 0.01 µM.

Broadly, the GI50 is the concentration that inhibits growth by half.
